According to ChEMBL document CHEMBL1143953, “Novel 2-phenylquinolin-7-yl-derived imidazo[1,5-a]pyrazines as potent insulin-like growth factor-I receptor (IGF-IR) inhibitors” (Bioorg Med Chem, 2008):
pIC50: −log10 of the molar value.

How the values were obtained:
[1] = molecular target: Insulin-like growth factor 1 receptor (Homo sapiens, UniProt P08069)
Description: Inhibition of human recombinant full length IGF1R expressed in mouse 3T3 cells

Cytochrome P450 3A4 = Cytochrome P450 3A4 (Homo sapiens, UniProt P08684); assay: Inhibition of CYP3A4; assay type: ADME
Cytochrome P450 3A4, sequence (P08684 whole entry): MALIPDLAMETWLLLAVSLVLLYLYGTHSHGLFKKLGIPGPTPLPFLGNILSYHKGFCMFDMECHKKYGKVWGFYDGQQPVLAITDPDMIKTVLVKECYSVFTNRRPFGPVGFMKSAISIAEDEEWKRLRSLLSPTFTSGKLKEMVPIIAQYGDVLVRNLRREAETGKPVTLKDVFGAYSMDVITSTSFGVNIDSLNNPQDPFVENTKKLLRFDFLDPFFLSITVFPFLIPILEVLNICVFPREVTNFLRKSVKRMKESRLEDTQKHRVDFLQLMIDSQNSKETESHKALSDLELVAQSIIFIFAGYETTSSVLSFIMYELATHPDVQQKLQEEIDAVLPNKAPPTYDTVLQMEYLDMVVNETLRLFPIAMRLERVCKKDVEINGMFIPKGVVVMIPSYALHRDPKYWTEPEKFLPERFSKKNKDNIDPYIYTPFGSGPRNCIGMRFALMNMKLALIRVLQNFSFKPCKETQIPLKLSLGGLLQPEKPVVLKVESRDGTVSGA

Insulin-like growth factor 1 receptor, sequence (P08069 31-736 limits assumed): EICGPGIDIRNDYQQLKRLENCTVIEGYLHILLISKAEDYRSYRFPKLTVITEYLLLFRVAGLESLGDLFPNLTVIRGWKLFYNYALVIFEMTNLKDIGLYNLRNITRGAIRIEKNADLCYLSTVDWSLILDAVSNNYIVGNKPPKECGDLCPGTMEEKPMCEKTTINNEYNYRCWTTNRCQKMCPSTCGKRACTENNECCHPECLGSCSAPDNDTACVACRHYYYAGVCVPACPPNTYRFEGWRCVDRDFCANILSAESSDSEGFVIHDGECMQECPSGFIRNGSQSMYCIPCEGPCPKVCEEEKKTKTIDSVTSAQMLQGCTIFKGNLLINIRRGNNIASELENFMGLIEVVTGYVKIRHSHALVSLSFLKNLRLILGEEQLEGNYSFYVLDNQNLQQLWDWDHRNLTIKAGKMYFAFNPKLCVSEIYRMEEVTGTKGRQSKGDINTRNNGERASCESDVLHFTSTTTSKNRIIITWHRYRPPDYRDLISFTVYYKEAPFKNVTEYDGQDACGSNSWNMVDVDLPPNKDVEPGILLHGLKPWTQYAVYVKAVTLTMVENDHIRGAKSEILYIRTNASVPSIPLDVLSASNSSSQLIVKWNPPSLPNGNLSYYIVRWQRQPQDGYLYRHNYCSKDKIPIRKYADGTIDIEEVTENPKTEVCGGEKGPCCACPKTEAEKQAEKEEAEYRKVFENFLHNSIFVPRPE
Insulin-like growth factor 1 receptor, sequence (P08069 741-1367 limits assumed): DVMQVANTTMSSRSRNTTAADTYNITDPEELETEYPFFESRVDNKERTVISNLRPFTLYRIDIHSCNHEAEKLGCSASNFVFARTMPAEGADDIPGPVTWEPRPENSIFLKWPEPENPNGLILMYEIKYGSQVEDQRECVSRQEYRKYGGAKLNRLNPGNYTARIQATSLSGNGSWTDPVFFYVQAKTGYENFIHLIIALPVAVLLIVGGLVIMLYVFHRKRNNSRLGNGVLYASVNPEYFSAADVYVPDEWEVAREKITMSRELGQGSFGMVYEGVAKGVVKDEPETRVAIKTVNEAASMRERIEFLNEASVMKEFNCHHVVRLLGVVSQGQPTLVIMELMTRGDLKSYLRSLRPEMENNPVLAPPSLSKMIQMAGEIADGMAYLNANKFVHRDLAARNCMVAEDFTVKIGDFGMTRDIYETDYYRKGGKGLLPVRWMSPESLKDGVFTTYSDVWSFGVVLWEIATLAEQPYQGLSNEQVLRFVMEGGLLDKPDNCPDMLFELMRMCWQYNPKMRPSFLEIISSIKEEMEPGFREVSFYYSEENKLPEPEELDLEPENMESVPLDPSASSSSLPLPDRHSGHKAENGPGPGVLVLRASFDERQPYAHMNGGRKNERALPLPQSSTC

SMILES | pIC50 [1] | pIC50 (Cytochrome P450 3A4)
Nc1nccn2c(C3CCC3)nc(-c3ccc4cccnc4c3)c12 | < 5.00 | –
Nc1nccn2c1c(-c1ccc3ccc(-c4ccccc4)nc3c1)nc2[C@H]1C[C@@H](CN2CCOCC2)C1 | – | < 4.70
Nc1nccn2c(C3CCC3)nc(-c3ccc4ccc(-c5ccccc5)nc4c3)c12 | – | 5.47
Nc1nccn2c1c(-c1ccc3ccc(-c4ccccc4)nc3c1)nc2[C@H]1C[C@@H](N2CCC2)C1 | – | < 4.70
Oc1nccn2c(C3CCC3)nc(-c3ccc4ccc(-c5ccccc5)nc4c3)c12 | < 5.00 | –
Nc1nccn2c1c(-c1ccc3ccc(-c4ccccc4)nc3c1)nc2[C@H]1C[C@@H](N2CCCC2)C1 | – | 4.77
Nc1nccn2c1c(-c1ccc3ccc(-c4ccccc4)nc3c1)nc2[C@H]1C[C@H](CN2CCOCC2)C1 | – | < 4.70
Nc1nccn2c1c(-c1ccc3ccc(-c4ccccc4)nc3c1)nc2[C@H]1C[C@@H](N2CCSCC2)C1 | – | 5.11
